Data from patent US20250177405A1, “METHODS OF TREATING NEUROLOGICAL AND CARDIOVASCULAR CONDITIONS” (ASTROCYTE PHARMACEUTICALS, INC., priority 2021, published 2025).

Tests used:
[1] = test system: traumatic brain injury (TBI) in mice; assay: mouse traumatic brain injury (TBI) model; conditions: in vivo
Description: Animals and traumatic brain injury (TBI): TBI is performed with a controlled closed skull injury model as described in Talley-Watts et al. 2012 (J. Neurotrauma 30, 55-66). Following the method described therein, a pneumatic impact device is used to generate a moderate TBI leaving the skull and dura matter intact. To achieve this, C57BL/6 mice are anesthetized with isoflurane (3% induction, 1% maintenance) in 100% oxygen. A body temperature of 37° C. is maintained using a temperature-controlled heated surgical table. A small midline incision is made on the scalp using aseptic surgical techniques. A 5 mm stainless steel disc is positioned on the skull and fixed using superglue on the right parietal bone between bregma and lamda over the somatosensory cortex. The mouse is then positioned on a stage directly under the pneumatic impact tip. […] Mice are placed in a Thermo-Intensive Care Unit (Braintree Scientific model FV-1; 37° C.; 27% O2) and monitored until fully awake and moving freely. […]
Western Blot Analysis for GFAP: At selected survival times, mice are anesthetized under isoflurane and sacrificed. […] The homogenate is transferred to a 2 mL tube and centrifuged at 1000 g for 10 minutes at 4° C. and the supernatant is collected and analyzed. Protein concentration is determined by the BCA assay using a 1:50 dilution. […]

[2] = plasma protein binding (free fraction); type: in vitro ADME; conditions: mouse
Description: (§1) Example 3 of U.S. Pat. No. 9,789,131, which is incorporated herein by reference, describes assays for determining the plasma and brain free fraction of certain compounds such as I-1. Compounds described herein may be evaluated using such assays or similar variants thereof.

[3] = brain tissue binding (free fraction); type: in vitro ADME, mouse; conditions: mouse brain tissue
Description: as §1

[4] = test system: rodent model of cerebral ischemia; assay: reproduction of Roucher study: ATP decline during cerebral ischemia; type: in vivo, rat; conditions: dose of 0.02 mg/kg, rats
Description: As part of the current study, we first reproduced the original Roucher results.
(§2) We therefore performed the same study using ^31P-ATP and measured the receptor engagement in the brain associated with the beneficial ATP effects.

A1R = biological target: T1, A1R (Rattus norvegicus, UniProt P25099); assay: estimated brain receptor occupancy of R-PIA at A1R; type: in vivo; conditions: associated with beneficial ATP effects
T1 construct: measured the receptor engagement in the brain associated with the beneficial ATP effects; from tissue; host or cells: brain of living rats (cerebral ischemia model)
T1 sequence (P25099 1-326): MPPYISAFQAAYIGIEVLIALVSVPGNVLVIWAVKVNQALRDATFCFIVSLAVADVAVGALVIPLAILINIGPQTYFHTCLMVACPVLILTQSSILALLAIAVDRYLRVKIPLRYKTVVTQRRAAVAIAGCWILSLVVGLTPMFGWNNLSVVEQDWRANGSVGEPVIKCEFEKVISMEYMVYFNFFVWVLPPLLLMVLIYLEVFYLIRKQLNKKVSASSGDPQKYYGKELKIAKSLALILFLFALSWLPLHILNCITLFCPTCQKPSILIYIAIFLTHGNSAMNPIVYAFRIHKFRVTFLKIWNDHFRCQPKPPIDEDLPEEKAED
Description: as §2

A3R [5] = biological target: T2, A3R (Rattus norvegicus, UniProt P28647); assay: estimated brain receptor occupancy of R-PIA at A3R; type: in vivo; conditions: associated with beneficial ATP effects
T2 sequence (P28647 1-320): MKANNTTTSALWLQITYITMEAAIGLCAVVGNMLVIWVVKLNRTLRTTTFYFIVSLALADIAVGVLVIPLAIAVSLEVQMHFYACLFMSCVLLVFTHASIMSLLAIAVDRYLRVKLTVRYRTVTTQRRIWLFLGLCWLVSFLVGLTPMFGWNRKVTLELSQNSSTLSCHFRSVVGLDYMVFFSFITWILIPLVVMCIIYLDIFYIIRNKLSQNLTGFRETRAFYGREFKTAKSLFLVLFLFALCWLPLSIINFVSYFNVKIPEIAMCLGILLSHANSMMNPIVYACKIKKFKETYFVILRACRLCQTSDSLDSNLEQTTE
Description: as §2

A3R [6] = biological target: T2, A3R; conditions: cited from earlier work
[7] = test system: reversible forebrain ischemia in the rat; conditions: cited from earlier work

| Compound | efficacy in mouse TBI model [1] | free (unbound) fraction in plasma [2] | free (unbound) fraction in brain [3] | decline in ATP during ischemia [4] | estimated RO % for A1R (A1R) [%] | estimated RO % for A3R (A3R [5]) [%] | Ki (A3R [6]) [nM] | intracellular pH ([7]; 30-min ischemia, reference group 6.30) | effect on cerebral metabolism before ischemia ([7]; before ischemia) | phosphocreatine, % of the control level ([7]; end of 30-min ischemia, reference group 27+/−9%) | ATP, % of the control level ([7]; end of 30-min ischemia, reference group 40+/−23%) | inorganic phosphate, % of the control level ([7]; end of 30-min ischemia, reference group 905+/−229%) | recovery of PCr, ATP, Pi, and pHi to control levels ([7]; recirculation, versus reference group) |
| --- | --- | --- | --- | --- | --- | --- | --- | --- | --- | --- | --- | --- | --- |
| CNC(=O)[C@H]1O[C@@H](n2cnc3c(NCc4cccc(I)c4)nc(Cl)nc32)[C@H](O)[C@@H]1O [Cl-IB-MECA, 2-Chloro-N^6-(3-iodobenzyl)-adenosine-5′-N-methyluronamide, reference compound] | weakly active | 0.002 | 0.002 | – | – | – | – | – | – | – | – | – | – |
| C[C@H](Cc1ccccc1)Nc1ncnc2c1ncn2[C@@H]1O[C@H](CO)[C@@H](O)[C@H]1O [Compound I-25, N^6-(L-2-Phenylisopropyl)adenosine] | – | – | – | partial reversal | 16 | 1 | 158 | 6.40+/−0.10 | no effect | 43+/−11% | 58+/−12% | 672+/−210% | faster recovery |
